Test results as given in patent US20240158385A1, “NOVEL COMPOUNDS” (Cerevance, Inc., priority 2021, published 2024).

These compounds were tested against T1, human KCNK13 (Homo sapiens, UniProt Q9HB14) (assay: KCNK13 antagonist activity, thallium (Tl+) flux FLIPR assay). Conditions: HEK 293 cells stably expressing human KCNK13; Tl+ sensitive dye, FLIPR; compounds 15 minutes prior to thallium sulfate; 10 point half log curves from 10 PM; read-out: hKCNK13 IC50.
T1 construct: expressed in transfected cells
T1 sequence (Q9HB14 1-408): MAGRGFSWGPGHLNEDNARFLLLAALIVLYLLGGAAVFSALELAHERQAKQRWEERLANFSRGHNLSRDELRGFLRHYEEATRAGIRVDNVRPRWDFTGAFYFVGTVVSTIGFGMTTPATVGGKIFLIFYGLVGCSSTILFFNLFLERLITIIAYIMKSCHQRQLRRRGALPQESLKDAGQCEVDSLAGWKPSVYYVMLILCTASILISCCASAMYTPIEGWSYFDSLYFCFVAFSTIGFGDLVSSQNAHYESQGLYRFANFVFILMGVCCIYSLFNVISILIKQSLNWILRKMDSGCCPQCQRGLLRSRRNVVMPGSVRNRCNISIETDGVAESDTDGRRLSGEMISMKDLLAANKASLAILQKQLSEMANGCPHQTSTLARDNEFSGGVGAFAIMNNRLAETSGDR
Format: cell-based
Outline: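 HEK 293 cells stably expressing human KCNK13 loaded with Tl+-sensitive dye for 1 h at room temperature. Compounds (10-point half-log curves) preincubated 15 min before thallium sulfate stimulus, fluorescence tracked by FLIPR. IC50 from ten-point curves, each point the mean of two wells.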
Cc1nonc1-c1nc2ccccc2n1Cc1ccc(S(C)(=O)=O)nc1 [Example 58, 3-methyl-4-[1-[(6-(methylsulfonyl)pyridin-3-yl)methyl]benzimidazol-2-yl]-1,2,5-oxadiazole] was tested, and the IC50 was < 100 nM. For Nc1nonc1-c1nc2cccnc2n1Cc1cccnc1 [Example 59, 4-[3-(pyridin-3-ylmethyl)imidazo[4,5-b]pyridin-2-yl]-1,2,5-oxadiazol-3-amine], the IC50 was < 200 nM. For Cc1nonc1-c1nc2ccccc2n1Cc1ccc(Cl)nc1 [Example 60, 3-[1-[(6-chloropyridin-3-yl)methyl]benzimidazol-2-yl]-4-methyl-1,2,5-oxadiazole], the IC50 was < 100 nM. With Cc1ccc(Cn2c(-c3nonc3C)nc3ccccc32)cn1 [Example 63, 3-methyl-4-[1-[(6-methylpyridin-3-yl)methyl]benzimidazol-2-yl]-1,2,5-oxadiazole] the IC50 was < 200 nM. With Cc1ncc(Cn2c(-c3nonc3C)nc3ccccc32)cn1 [Example 64, 3-methyl-4-[1-[(2-methylpyrimidin-5-yl)methyl]benzimidazol-2-yl]-1,2,5-oxadiazole] the IC50 was < 200 nM. With Cc1nonc1-c1nc2c(F)ccc(F)c2n1Cc1cccnc1 [Example 65, 3-[4,7-difluoro-1-(pyridin-3-ylmethyl)benzimidazol-2-yl]-4-methyl-1,2,5-oxadiazole] the IC50 was < 50 nM. COc1cc(Cn2c(-c3nonc3C)nc3ccccc32)ccn1 [Example 66, 3-[1-[(2-methoxypyridin-4-yl)methyl]benzimidazol-2-yl]-4-methyl-1,2,5-oxadiazole] was tested, and the IC50 was < 200 nM. In the case of Cc1nonc1-c1nc2ccccc2n1Cc1cccnc1C#N [Example 67, 3-[[2-(4-methyl-1,2,5-oxadiazol-3-yl)benzimidazol-1-yl]methyl]pyridine-2-carbonitrile], the IC50 is reported as < 200 nM. With Fc1cccc2nc(-c3cnns3)n(Cc3cccnc3)c12 [Example 68, 5-[7-fluoro-1-(pyridin-3-ylmethyl)benzimidazol-2-yl]-1,2,3-thiadiazole] the IC50 was < 200 nM. Cc1cccnc1Cn1c(-c2nonc2C)nc2ccccc21 [Example 69, 3-methyl-4-[1-[(3-methylpyridin-2-yl)methyl]benzimidazol-2-yl]-1,2,5-oxadiazole] was tested, and the IC50 was < 200 nM. With CCOc1cccc2nc(-c3nonc3C)n(Cc3ccncc3)c12 [Example 70, 3-[7-ethoxy-1-(pyridin-4-ylmethyl)benzimidazol-2-yl]-4-methyl-1,2,5-oxadiazole] the IC50 was < 500 nM. With Cc1nonc1-c1nc2cccc(N)c2n1Cc1cccnc1 [Example 72, 2-(4-methyl-1,2,5-oxadiazol-3-yl)-3-(pyridin-3-ylmethyl)benzimidazol-4-amine] the IC50 was < 500 nM. For CNc1ccc(Cn2c(-c3nonc3C)nc3ccccc32)cn1 [Example 73, N-methyl-5-[[2-(4-methyl-1,2,5-oxadiazol-3-yl)benzimidazol-1-yl]methyl]pyridin-2-amine], the IC50 was < 500 nM. With Cc1cc(Cn2c(-c3nonc3C)nc3ccccc32)ccn1 [Example 74, 3-methyl-4-[1-[(2-methylpyridin-4-yl)methyl]benzimidazol-2-yl]-1,2,5-oxadiazole] the IC50 was < 500 nM. With Cc1cc(C)nc(Cn2c(-c3nonc3C)nc3ccccc32)c1 [Example 75, 3-[1-[(4,6-dimethylpyridin-2-yl)methyl]benzimidazol-2-yl]-4-methyl-1,2,5-oxadiazole] the IC50 was < 500 nM. With Cc1nonc1-c1nc2ccccc2n1Cc1ccc[n+]([O-])c1 [Example 76, 3-methyl-4-[1-[(1-oxidopyridin-1-ium-3-yl)methyl]benzimidazol-2-yl]-1,2,5-oxadiazole] the IC50 was < 500 nM. In the case of Cc1nonc1-c1nc2ccccc2n1Cc1cc[n+]([O-])cc1 [Example 77, 3-methyl-4-[1-[(1-oxidopyridin-1-ium-4-yl)methyl]benzimidazol-2-yl]-1,2,5-oxadiazole], the IC50 is reported as < 1000 nM. In the case of Cc1cccc(Cn2c(-c3nonc3C)nc3ccccc32)n1 [Example 78, 3-methyl-4-[1-[(6-methylpyridin-2-yl)methyl]benzimidazol-2-yl]-1,2,5-oxadiazole], the IC50 is reported as < 500 nM. In the case of Cc1nonc1-c1nc2ccccc2n1Cc1ccccn1 [Example 79, 3-methyl-4-[1-(pyridin-2-ylmethyl)benzimidazol-2-yl]-1,2,5-oxadiazole], the IC50 is reported as < 500 nM. With Cc1nsnc1-c1nc2ccc(F)cc2n1Cc1ccc(C#N)nc1 [Example 80, 5-[[6-fluoro-2-(4-methyl-1,2,5-thiadiazol-3-yl)benzimidazol-1-yl]methyl]pyridine-2-carbonitrile] the IC50 was < 1000 nM. In the case of CNc1cccc2nc(-c3nonc3C)n(Cc3cccnc3)c12 [Example 81, N-methyl-2-(4-methyl-1,2,5-oxadiazol-3-yl)-3-(pyridin-3-ylmethyl)benzimidazol-4-amine], the IC50 is reported as < 1000 nM. For Cc1nonc1-c1nc2ccccc2n1Cc1ncccc1F [Example 82, 3-[1-[(3-fluoropyridin-2-yl)methyl]benzimidazol-2-yl]-4-methyl-1,2,5-oxadiazole], the IC50 was < 1000 nM. With Cc1nonc1-c1nc2c(F)ccc(F)c2n1Cc1cnc(C#N)nc1 [Example 83, 5-[[4,7-difluoro-2-(4-methyl-1,2,5-oxadiazol-3-yl)benzimidazol-1-yl]methyl]pyrimidine-2-carbonitrile] the IC50 was < 200 nM. For Cc1nonc1-c1nc2c(F)ccc(F)c2n1Cc1cncnc1 [Example 84, 3-[4,7-difluoro-1-(pyrimidin-5-ylmethyl)benzimidazol-2-yl]-4-methyl-1,2,5-oxadiazole], the IC50 was < 100 nM. For Nc1nonc1-c1nc2ccccc2n1Cc1ccc(Br)nc1 [Example 88, 4-(1-((6-bromopyridin-3-yl)methyl)benzimidazol-2-yl)-1,2,5-oxadiazol-3-amine], the IC50 was < 50 nM. For C=Cc1nsnc1-c1nc2ccccc2n1Cc1cccnc1 [Example 89, 3-[1-(pyridin-3-ylmethyl)benzimidazol-2-yl]-4-vinyl-1,2,5-thiadiazole], the IC50 was < 50 nM. In the case of Nc1nonc1-c1nc2ccccc2n1Cc1cccnc1 [Example 90, 4-[1-(pyridin-3-ylmethyl)benzimidazol-2-yl]-1,2,5-oxadiazol-3-amine], the IC50 is reported as < 50 nM. Nc1nonc1-c1nc2ccc(F)cc2n1Cc1ccncc1 [Example 91, 4-[6-fluoro-1-(pyridin-4-ylmethyl)benzimidazol-2-yl]-1,2,5-oxadiazol-3-amine] was tested, and the IC50 was < 50 nM. Nc1nonc1-c1nc2cc(F)ccc2n1Cc1ccncc1 [Example 92, 4-[5-fluoro-1-(pyridin-4-ylmethyl)benzimidazol-2-yl]-1,2,5-oxadiazol-3-amine] was tested, and the IC50 was < 50 nM. With COc1cc(Cn2c(-c3nonc3N)nc3ccccc32)ccn1 [Example 93, 4-[1-[(2-methoxypyridin-4-yl)methyl]benzimidazol-2-yl]-1,2,5-oxadiazol-3-amine] the IC50 was < 50 nM. In the case of Nc1nonc1-c1nc2ccccc2n1Cc1ccnc(C(F)(F)F)c1 [Example 94, 4-[1-[[2-(trifluoromethyl)pyridin-4-yl]methyl]benzimidazol-2-yl]-1,2,5-oxadiazol-3-amine], the IC50 is reported as < 100 nM. In the case of Nc1nonc1-c1nc2ccccc2n1Cc1cncc(C(F)(F)F)c1 [Example 95, 4-[1-[[5-(trifluoromethyl)pyridin-3-yl]methyl]benzimidazol-2-yl]-1,2,5-oxadiazol-3-amine], the IC50 is reported as < 100 nM. In the case of CNc1nsnc1-c1nc2ccccc2n1Cc1cccnc1 [Example 96, N-methyl-4-[1-(pyridin-3-ylmethyl)benzimidazol-2-yl]-1,2,5-thiadiazol-3-amine], the IC50 is reported as < 100 nM. With Nc1nonc1-c1nc2ccccc2n1Cc1ccc(C(F)(F)F)nc1 [Example 97, 4-[1-[[6-(trifluoromethyl)pyridin-3-yl]methyl]benzimidazol-2-yl]-1,2,5-oxadiazol-3-amine] the IC50 was < 100 nM. For Cc1nonc1-c1nc2ccccc2n1Cc1ccncc1 [Example 98, 3-methyl-4-[1-(pyridin-4-ylmethyl)benzimidazol-2-yl]-1,2,5-oxadiazole], the IC50 was < 100 nM. In the case of N#Cc1nsnc1-c1nc2ccccc2n1Cc1cccnc1 [Example 99, 4-[1-(pyridin-3-ylmethyl)benzimidazol-2-yl]-1,2,5-thiadiazole-3-carbonitrile], the IC50 is reported as < 100 nM. In the case of Cc1ccsc1-c1nc2ccccc2n1Cc1cccnc1 [Example 100, 2-(3-methylthiophen-2-yl)-1-(pyridin-3-ylmethyl)benzimidazole], the IC50 is reported as < 200 nM. Cc1nonc1-c1nc2ccccc2n1Cc1cccnc1 [Example 101, 3-methyl-4-[1-(pyridin-3-ylmethyl)benzimidazol-2-yl]-1,2,5-oxadiazole] was tested, and the IC50 was < 100 nM. In the case of Cc1snnc1-c1nc2ccccc2n1Cc1cccnc1 [Example 102, 5-methyl-4-[1-(pyridin-3-ylmethyl)benzimidazol-2-yl]-1,2,3-thiadiazole], the IC50 is reported as < 200 nM. For Cc1ocnc1-c1nc2ccccc2n1Cc1cccnc1 [Example 103, 5-methyl-4-[1-(pyridin-3-ylmethyl)benzimidazol-2-yl]oxazole], the IC50 was < 200 nM. For Cc1conc1-c1nc2ccccc2n1Cc1cccnc1 [Example 104, 4-methyl-3-[1-(pyridin-3-ylmethyl)benzimidazol-2-yl]isoxazole], the IC50 was < 200 nM. CCc1nsnc1-c1nc2ccccc2n1Cc1cccnc1 [Example 105, 3-ethyl-4-[1-(pyridin-3-ylmethyl)benzimidazol-2-yl]-1,2,5-thiadiazole] was tested, and the IC50 was < 200 nM. For Nc1nonc1-c1nc2ccccc2n1Cc1ccncn1 [Example 106, 4-[1-(pyrimidin-4-ylmethyl)benzimidazol-2-yl]-1,2,5-oxadiazol-3-amine], the IC50 was < 200 nM.
